Assay results reported in patent US9227971B2, “Pyrazolo[1,5-a]pyrimidine compounds as mTOR inhibitors” (Merck Sharp & Dohme Corp., priority 2010, dated 2016).
Read-outs that look alike come from different tables or passages of the source.

Tests used:
[1] = system: phosphorylated 4E-BP1 Thr37/46 (p4E-BP1 Thr37/46), mTORC1 activity, PC3 cells; test: mTOR target engagement assay, immunofluorescent cell-based, p4E-BP1 Thr37/46 readout (mTORC1 activity); conditions: read-out: p4E-BP1 Thr37/46 IC50
Outline: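 Read-out is fluorescence intensity of immunostained p4E-BP1 Thr37/46 in fixed PC3 cells, fitted to a logistic curve for IC50 with DMSO-only wells as top. Cells had been exposed to serial compound dilutions for ninety minutes at 37° C in 5% FBS medium with 0.25% DMSO.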

[2] = system: phosphorylated AKT Ser473 (pAKT S473), mTORC2 activity, PC3 cells; test: mTOR target engagement assay, immunofluorescent cell-based, pAKT S473 readout (mTORC2 activity)
Outline: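 After blocking, cells were stained overnight at 4 °C with anti-pAKT S473 antibody, then a fluorescent secondary; inhibition was read as reduced fluorescence intensity.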

[3] = Homo sapiens, PC-3, Table 3-1, PC3 cells
[4] = Homo sapiens, PC-3, PC3 cells, compound treatment ninety minutes at 37° C.
[5] = PC3 cells, compound treatment ninety minutes at 37° C.
[6] = Homo sapiens, PC-3, Table 7-2, PC3 cells

CS(=O)(=O)c1c([C@@H]2C[C@H]3CC[C@@H](C2)N3C(=O)c2nc[nH]n2)nc2c(-c3ccc(-c4ccccc4)nc3)cnn2c1N [Compound 3.2, ((1R,3s,5S)-3-(7-amino-6-(methylsulfonyl)-3-(6-phenylpyridin-3-yl)pyrazolo[1,5-a]pyrimidin-5-yl)-8-azabicyclo[3.2.1]octan-8-yl)(1H-1,2,4-triazol-3-yl)methanone]
IC50 [1, 3]: 0.001 to 0.1 µM
IC50 [2, 3]: 0.001 to 0.1 µM

COCCNc1nnc(C(=O)N2[C@@H]3CC[C@H]2C[C@H](c2nc4c(-c5ccc(-c6ccccc6)nc5)cnn4c(N)c2C2CC2)C3)[nH]1 [Compound 4.31, ((1R,3s,5S)-3-(7-amino-6-cyclopropyl-3-(6-phenylpyridin-3-yl)pyrazolo[1,5-a]pyrimidin-5-yl)-8-azabicyclo[3.2.1]octan-8-yl)(5-(2-methoxyethylamino)-4H-1,2,4-triazol-3-yl)methanone]
IC50 [1, 4]: 1 to 10 µM
IC50 [2, 4]: 1 to 10 µM

CS(=O)(=O)c1c(C2CC3COCC(C2)N3C(=O)c2nc[nH]n2)nc2c(-c3ccc(-c4ccccc4)nc3)cnn2c1N (single isomer, unassigned) [Compound 8.31, (7-(7-amino-6-(methylsulfonyl)-3-(6-phenylpyridin-3-yl)pyrazolo[1,5-a]pyrimidin-5-yl)-3-oxa-9-azabicyclo[3.3.1]nonan-9-yl)(1H-1,2,4-triazol-3-yl)methanone]
IC50 ([1]; PC3 cells): 0.1 to 1 µM
IC50 ([2]; PC3 cells): 0.1 to 1 µM

1-((1R,3s,5S)-3-(6-acetyl-7-amino-3-(6-(fluoromethyl)pyridin-3-yl)pyrazolo[1,5-a]pyrimidin-5-yl)-8-azabicyclo[3.2.1]octan-8-yl)-2-hydroxyethanone [Compound 1.1.92]
IC50 [1, 5]: 0.001 to 0.1 µM
IC50 [2, 5]: 0.001 to 0.1 µM

CC(=O)c1c([C@@H]2C[C@H]3CC[C@@H](C2)N3C(=O)c2nnc[nH]2)nc2c(-c3ccc4ccc(F)cc4c3)cnn2c1N [Compound 1.1.38, 1-(5-((1R,3s,5S)-8-(4H-1,2,4-triazole-3-carbonyl)-8-azabicyclo[3.2.1]octan-3-yl)-7-amino-3-(7-fluoronaphthalen-2-yl)pyrazolo[1,5-a]pyrimidin-6-yl)ethanone]
IC50 [1, 5]: 0.001 to 0.1 µM
IC50 [2, 5]: 0.1 to 1 µM

CC(=O)c1c([C@@H]2C[C@H]3CC[C@@H](C2)N3S(=O)(=O)O)nc2c(-c3ccc(-c4ccccc4)nc3)cnn2c1N [Compound 1.1.49, (1R,3s,5S)-3-(6-acetyl-7-amino-3-(6-phenylpyridin-3-yl)pyrazolo[1,5-a]pyrimidin-5-yl)-8-azabicyclo[3.2.1]octane-8-sulfonic acid]
IC50 [1, 4]: > 10 µM
IC50 [2, 4]: 1 to 10 µM

CC(=O)c1c([C@@H]2C[C@H]3CC[C@@H](C2)N3C(=O)c2cc(N)n[nH]2)nc2c(-c3ccc(-c4cnn(C)c4)nc3)cnn2c1N [Compound 1.1.176, 1-(7-amino-5-((1R,3s,5S)-8-(3-amino-1H-pyrazole-5-carbonyl)-8-azabicyclo[3.2.1]octan-3-yl)-3-(6-(1-methyl-1H-pyrazol-4-yl)pyridin-3-yl)pyrazolo[1,5-a]pyrimidin-6-yl)ethanone]
IC50 [1, 4]: 0.1 to 1 µM
IC50 [2, 4]: 0.1 to 1 µM

CC(C)(O)c1ccc(-c2cnn3c(N)c(S(C)(=O)=O)c([C@@H]4C[C@H]5CC[C@@H](C4)N5C(=O)c4nnc[nH]4)nc23)cn1 [Compound 7.27, ((1R,3s,5S)-3-(7-amino-3-(6-(2-hydroxypropan-2-yl)pyridin-3-yl)-6-(methylsulfonyl)pyrazolo[1,5-a]pyrimidin-5-yl)-8-azabicyclo[3.2.1]octan-8-yl)(1H-1,2,4-triazol-5-yl)methanone]
IC50 [1, 6]: 0.001 to 0.1 µM
IC50 [2, 6]: 0.001 to 0.1 µM

CC(=O)c1c([C@@H]2C[C@H]3CC[C@@H](C2)N3C(=O)c2ccc[nH]2)nc2c(-c3ccc(-c4ccccc4)nc3)cnn2c1N [Compound 1.1.43, 1-(5-((1R,3s,5S)-8-(1H-pyrrole-2-carbonyl)-8-azabicyclo[3.2.1]octan-3-yl)-7-amino-3-(6-phenylpyridin-3-yl)pyrazolo[1,5-a]pyrimidin-6-yl)ethanone]
IC50 [1, 4]: 0.1 to 1 µM
IC50 [2, 4]: 0.1 to 1 µM

CC(=O)c1c([C@@H]2C[C@H]3CC[C@@H](C2)N3C(=O)c2nnc[nH]2)nc2c(-c3ccc(-c4ccc5nn(C)cc5c4)nc3)cnn2c1N [Compound 1.1.70, 1-(5-((1R,3s,5S)-8-(4H-1,2,4-triazole-3-carbonyl)-8-azabicyclo[3.2.1]octan-3-yl)-7-amino-3-(6-(2-methyl-2H-indazol-5-yl)pyridin-3-yl)pyrazolo[1,5-a]pyrimidin-6-yl)ethanone]
IC50 [1, 4]: 0.001 to 0.1 µM
IC50 [2, 4]: 0.001 to 0.1 µM

CC(=O)c1c(C2CC3CCC(C2)N3C(=O)c2nn[nH]n2)nc2c(-c3ccc(-c4ccccc4)nc3)cnn2c1N [Compound 1.1.24, 1-(5-((1R,3s,5S)-8-(1H-tetrazole-5-carbonyl)-8-azabicyclo[3.2.1]octan-3-yl)-7-amino-3-(6-phenylpyridin-3-yl)pyrazolo[1,5-a]pyrimidin-6-yl)ethanone]
IC50 [1, 4]: 1 to 10 µM
IC50 [2, 4]: 1 to 10 µM

CC(=O)c1c([C@@H]2C[C@H]3CC[C@@H](C2)N3C(=O)c2nnc[nH]2)nc2c(-c3ccc(C(F)(F)F)nc3)cnn2c1N [Compound 1.1.104, 1-(5-((1R,3s,5S)-8-(4H-1,2,4-triazole-3-carbonyl)-8-azabicyclo[3.2.1]octan-3-yl)-7-amino-3-(6-(trifluoromethyl)pyridin-3-yl)pyrazolo[1,5-a]pyrimidin-6-yl)ethanone]
IC50 [1, 4]: 0.1 to 1 µM
IC50 [2, 4]: 0.1 to 1 µM

CONC(=O)N1C2CC[C@@H]1C[C@@H](c1nc3c(-c4ccc(-c5ccccc5)nc4)cnn3c(N)c1S(C)(=O)=O)C2 [Compound 3.171, (1R,3s,5S)-3-(7-amino-6-(methylsulfonyl)-3-(6-phenylpyridin-3-yl)pyrazolo[1,5-a]pyrimidin-5-yl)-N-methoxy-8-azabicyclo[3.2.1]octane-8-carboxamide]
IC50 [1, 3]: 0.1 to 1 µM
IC50 [2, 3]: 0.1 to 1 µM

CS(=O)(=O)c1c([C@H]2CC3CC[C@H](C2)N3C(=O)c2nnc[nH]2)nc2c(-c3cnc4c(c3)CCCC4O)cnn2c1N (stereo partly drawn) [Compound 7.53, ((1R,3s,5S)-3-(7-amino-3-(8-hydroxy-5,6,7,8-tetrahydroquinolin-3-yl)-6-(methylsulfonyl)pyrazolo [1,5-a]pyrimidin-5-yl)-8-azabicyclo[3.2.1]octan-8-yl)(4H-1,2,4-triazol-3-yl)methanone]
IC50 ([1]; Homo sapiens, PC-3, PC3 cells): 0.1 to 1 µM
IC50 ([2]; Homo sapiens, PC-3, PC3 cells): 0.1 to 1 µM

COc1ccc(-c2ccc(-c3cnn4c(N)c(C5CC5)c([C@@H]5C[C@H]6CC[C@@H](C5)N6C(=O)c5nnc[nH]5)nc34)cn2)cc1F [Compound 4.9, ((1R,3s,5S)-3-(7-amino-6-cyclopropyl-3-(6-(3-fluoro-4-methoxyphenyl)pyridin-3-yl)pyrazolo[1,5-a]pyrimidin-5-yl)-8-azabicyclo[3.2.1]octan-8-yl)(4H-1,2,4-triazol-3-yl)methanone]
IC50 [1, 4]: 0.1 to 1 µM
IC50 [2, 4]: 0.001 to 0.1 µM

CC(=O)c1c([C@@H]2C[C@H]3CC[C@@H](C2)N3C(=O)CO)nc2c(-c3ccc(-c4ccn(C)n4)nc3)cnn2c1N [Compound 1.1.60, 1-((1R,3s,5S)-3-(6-acetyl-7-amino-3-(6-(1-methyl-1H-pyrazol-3-yl)pyridin-3-yl)pyrazolo[1,5-a]pyrimidin-5-yl)-8-azabicyclo[3.2.1]octan-8-yl)-2-hydroxyethanone]
IC50 [1, 4]: 0.1 to 1 µM
IC50 [2, 4]: 0.1 to 1 µM

CC(=O)c1c([C@@H]2C[C@H]3CC[C@@H](C2)N3C(=O)c2cnn[nH]2)nc2c(-c3ccc(C(C)(C)O)nc3)cnn2c1N [Compound 7.10, 1-(5-((1R,3s,5S)-8-(1H-1,2,3-triazole-5-carbonyl)-8-azabicyclo[3.2.1]octan-3-yl)-7-amino-3-(6-(2-hydroxypropan-2-yl)pyridin-3-yl)pyrazolo[1,5-a]pyrimidin-6-yl)ethanone]
IC50 [1, 4]: 0.1 to 1 µM
IC50 [2, 4]: 0.1 to 1 µM

Nc1cc([C@@H]2C[C@H]3CC[C@@H](C2)N3)nc2c(-c3ccc(-c4ccccc4)nc3)cnn12 [Compound 2.23, 5-((1R,3s,5S)-8-azabicyclo[3.2.1]octan-3-yl)-3-(6-phenylpyridin-3-yl)pyrazolo[1,5-a]pyrimidin-7-amine]
IC50 [1, 4]: 1 to 10 µM
IC50 [2, 4]: 1 to 10 µM

C[C@@H](O)C(=O)N1[C@@H]2CC[C@H]1C[C@H](c1nc3c(-c4ccc(-c5ccccc5)nc4)cnn3c(N)c1S(C)(=O)=O)C2 [Compound 3.28, (R)-1-((1R,3S,5S)-3-(7-amino-6-(methylsulfonyl)-3-(6-phenylpyridin-3-yl)pyrazolo[1,5-a]pyrimidin-5-yl)-8-azabicyclo[3.2.1]octan-8-yl)-2-hydroxypropan-1-one]
IC50 [1, 3]: 0.1 to 1 µM
IC50 [2, 3]: 0.1 to 1 µM

CC(=O)c1c([C@@H]2C[C@H]3CC[C@@H](C2)N3C(=O)c2nnc[nH]2)nc2c(-c3ccc(-c4ccc(F)cc4)nc3)cnn2c1N [Compound 1.1.163, 1-(5-((1R,3s,5S)-8-(4H-1,2,4-triazole-3-carbonyl)-8-azabicyclo[3.2.1]octan-3-yl)-7-amino-3-(6-(4-fluorophenyl)pyridin-3-yl)pyrazolo[1,5-a]pyrimidin-6-yl)ethanone]
IC50 [1, 4]: 0.1 to 1 µM
IC50 [2, 4]: 0.001 to 0.1 µM
